Here are results for 23 molecules from US20250154686A1, “COMPOUND LIBRARY” (CHUGAI SEIYAKU KABUSHIKI KAISHA, priority 2021, published 2025).

The assay concerns the target T1, Bcl-2 protein (Recombinant Human Bcl-2 Protein) (Homo sapiens, UniProt P10415).
T1 construct: purchased Novus Biologicals NBP2-34889
In words: AS-MS evaluation of binding of the Example 4 mixture library (1200 compounds/well) to Bcl-2, ASMS ratio (%). Put shortly: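 A pooled 1200-compound mixture (20 nM each final) was incubated with 20 μM recombinant human Bcl-2 in pH 7.4 Tris-HCl buffer with NaCl, Tween-20 and DTT for 1 h at 23° C. in the dark. Bound ligands were separated by spin-column SEC and measured by reverse-phase LC/MS; ASMS ratio (%) was calculated against protein-free unfiltered standard and protein-free SEC blank.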

The mark [1] stands for this setting: AS-MS, Example 4 mixture library, Bcl-2, replicate n = 1.
Where [2] appears, read: AS-MS, Example 4 mixture library, Bcl-2, replicate n = 2.
Where [3] appears, read: replicate n = 1, mixture library, value belongs to the MS peak assigned to the compound.
Where [4] appears, read: replicate n = 2, mixture library, value belongs to the MS peak assigned to the compound.

Each structure is given as a SMILES string.

T1 sequence (P10415 whole entry): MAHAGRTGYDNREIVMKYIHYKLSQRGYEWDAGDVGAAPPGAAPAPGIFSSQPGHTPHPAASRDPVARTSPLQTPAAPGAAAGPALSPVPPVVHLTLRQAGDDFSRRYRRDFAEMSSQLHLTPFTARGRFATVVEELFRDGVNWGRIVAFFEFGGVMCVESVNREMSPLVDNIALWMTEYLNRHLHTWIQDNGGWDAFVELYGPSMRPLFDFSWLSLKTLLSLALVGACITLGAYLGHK

As for `CCOc1cccc(-c2csc(CN3CCN(c4ccc(C(=O)NS(=O)(=O)c5ccc(NCCSc6ccccc6)c(C(F)(F)F)c5)nn4)CC3)c2)c1` [Compound B2R093-01, 6-[4-[[4-(3-Ethoxyphenyl)thiophen-2-yl]methyl]piperazin-1-yl]-N-[4-(2-phenylsulfanylethylamino)-3-(trifluoromethyl)phenyl]sulfonylpyridazine-3-carboxamide], under setting [1], the “ASMS ratio (%) n = 1” value is 56.5%. The “ASMS ratio (%) n = 2” value under setting [2] is 0.0%.

Regarding `CCOc1cccc(-c2cc(CN3CCN(c4ccc(C(=O)NS(=O)(=O)CCC(F)(F)F)nn4)CC3)cc(C(F)(F)F)c2)c1` [Compound B2N087-01, 6-[4-[[3-(3-Ethoxyphenyl)-5-(trifluoromethyl)phenyl]methyl]piperazin-1-yl]-N-(3,3,3-trifluoropropylsulfonyl)pyridazine-3-carboxamide], under setting [1], the “ASMS ratio (%) n = 1” value is given as 0.0%. Further, the “ASMS ratio (%) n = 2” value under setting [2] is on record as 0.0%.

In the case of `CCOc1cccc(-c2cnn(-c3cc(C(=O)N4CCN(c5ccc(C(=O)NS(=O)(=O)C(C)(C)C)cc5)CC4)cc(C(F)(F)F)c3)c2)c1` [Compound B2L043-01, N-tert-Butylsulfonyl-4-[4-[3-[4-(3-ethoxyphenyl)pyrazol-1-yl]-5-(trifluoromethyl)benzoyl]piperazin-1-yl]benzamide], the “ASMS ratio (%) n = 1” value under setting [3] is on record as 0.0%. Moreover, the “ASMS ratio (%) n = 2” value under setting [4] stood at 0.0%.

On to `CCOc1cccc(-c2ccc(CN3CCN(c4ccc(C(=O)NS(=O)(=O)c5ccc(NCCSc6ccccc6)c(C(F)(F)F)c5)cc4)CC3)cc2C)c1` [Compound B2R047-01, 4-[4-[[4-(3-Ethoxyphenyl)-3-methylphenyl]methyl]piperazin-1-yl]-N-[4-(2-phenylsulfanylethylamino)-3-(trifluoromethyl)phenyl]sulfonylbenzamide], for which, under setting [1], the “ASMS ratio (%) n = 1” value was determined as 6.6%. For the same molecule, the “ASMS ratio (%) n = 2” value under setting [2] was −7.8%.

With `CCOc1cccc(-c2ccc(CN3CCN(c4ccc(C(=O)NS(=O)(=O)c5ccc(NCCSc6ccccc6)c(C(F)(F)F)c5)cc4)CC3)c(CC)c2)c1` [Compound B2R049-01, 4-[4-[[4-(3-Ethoxyphenyl)-2-ethylphenyl]methyl]piperazin-1-yl]-N-[4-(2-phenylsulfanylethylamino)-3-(trifluoromethyl)phenyl]sulfonylbenzamide], the “ASMS ratio (%) n = 1” value under setting [1] is 7.5%. The “ASMS ratio (%) n = 2” value under setting [2] is −5.5%.

With `CCOc1cncc(-c2ccc(C(C)N3CCN(c4ccc(C(=O)NS(=O)(=O)C(C)(C)C)cc4)CC3)cc2)c1` (stereo not drawn) [Compound B2L098-01, N-tert-Butylsulfonyl-4-[4-[1-[4-(5-ethoxypyridin-3-yl)phenyl]ethyl]piperazin-1-yl]benzamide], under setting [1], the “ASMS ratio (%) n = 1” value is 3.9%. Further, under setting [2], the “ASMS ratio (%) n = 2” value was −5.0%.

Turning to `CCOc1cccc(-c2ccc(CN3CCN(c4ccc(C(=O)NS(=O)(=O)CCC(F)(F)F)cc4)CC3)c(CC)c2)c1` [Compound B2N049-01, 4-[4-[[4-(3-Ethoxyphenyl)-2-ethylphenyl]methyl]piperazin-1-yl]-N-(3,3,3-trifluoropropylsulfonyl)benzamide], the “ASMS ratio (%) n = 1” value under setting [1] is on record as 0.0%. For the same molecule, the “ASMS ratio (%) n = 2” value under setting [2] is given as 0.0%.

With `CCOc1cncc(-c2ccc(CN3CCN(c4ccc(C(=O)NS(=O)(=O)c5ccc(NCCSc6ccccc6)c(C(F)(F)F)c5)nn4)CC3)cc2F)c1` [Compound B2R078-01, 6-[4-[[4-(5-Ethoxypyridin-3-yl)-3-fluorophenyl]methyl]piperazin-1-yl]-N-[4-(2-phenylsulfanylethylamino)-3-(trifluoromethyl)phenyl]sulfonylpyridazine-3-carboxamide], the “ASMS ratio (%) n = 1” value under setting [1] worked out at 15.8%. For the same molecule, the “ASMS ratio (%) n = 2” value under setting [2] was 11.7%.

With `CCOc1cncc(-c2cnn(-c3cc(C(=O)N4CCN(c5ccc(C(=O)NS(=O)(=O)CCC(F)(F)F)cc5)CC4)cc(C(F)(F)F)c3)c2)c1` [Compound B2N044-01, 4-[4-[3-[4-(5-Ethoxypyridin-3-yl)pyrazol-1-yl]-5-(trifluoromethyl)benzoyl]piperazin-1-yl]-N-(3,3,3-trifluoropropylsulfonyl)benzamide], under setting [1], the “ASMS ratio (%) n = 1” value is listed as 0.2%. Besides, the “ASMS ratio (%) n = 2” value under setting [2] came to 1.4%.

Consider `CCOc1cncc(-c2cc(OC)c(CN3CCN(c4ccc(C(=O)NS(=O)(=O)C(C)(C)C)cc4)CC3)c(OC)c2)c1` [Compound B2L060-01], for which the “ASMS ratio (%) n = 2” value under setting [4] was determined as 0.0%.

Consider `CCOc1cncc(-c2ccc(CN3CCN(c4ccc(C(=O)NS(=O)(=O)c5ccc(NCCSc6ccccc6)c(C(F)(F)F)c5)nn4)CC3)c(CC)c2)c1` [Compound B2R076-01], for which the “ASMS ratio (%) n = 1” value under setting [1] is on record as 3.9%. Besides, the “ASMS ratio (%) n = 2” value under setting [2] is on record as 19.7%.

Regarding `CCOc1cncc(-c2cnn(-c3cc(C(=O)N4CCN(c5ccc(C(=O)NS(=O)(=O)c6ccc(NCCSc7ccccc7)c(C(F)(F)F)c6)cc5)CC4)cc(C(F)(F)F)c3)c2)c1` [Compound B2R044-01, 4-[4-[3-[4-(5-Ethoxypyridin-3-yl)pyrazol-1-yl]-5-(trifluoromethyl)benzoyl]piperazin-1-yl]-N-[4-(2-phenylsulfanylethylamino)-3-(trifluoromethyl)phenyl]sulfonylbenzamide], the “ASMS ratio (%) n = 1” value under setting [1] is given as −3.7%. In addition, under setting [2], the “ASMS ratio (%) n = 2” value was −4.1%.

For the molecule `CCOc1cncc(-c2ccc(C(C)N3CCN(c4ccc(C(=O)NS(=O)(=O)c5ccc(NCCSc6ccccc6)c(C(F)(F)F)c5)cc4)CC3)c(F)c2)c1` (stereo not drawn) [Compound B2R100-01, 4-[4-[1-[4-(5-Ethoxypyridin-3-yl)-2-fluorophenyl]ethyl]piperazin-1-yl]-N-[4-(2-phenylsulfanylethylamino)-3-(trifluoromethyl)phenyl]sulfonylbenzamide], the “ASMS ratio (%) n = 1” value under setting [1] came to 0.6%. Further, under setting [2], the “ASMS ratio (%) n = 2” value is 10.1%.

On to `CCOc1cncc(-c2csc(CN3CCN(c4ccc(C(=O)NS(=O)(=O)c5ccc(NCCSc6ccccc6)c(C(F)(F)F)c5)cc4)CC3)c2)c1` [Compound B2R068-01, 4-[4-[[4-(5-Ethoxypyridin-3-yl)thiophen-2-yl]methyl]piperazin-1-yl]-N-[4-(2-phenylsulfanylethylamino)-3-(trifluoromethyl)phenyl]sulfonylbenzamide], for which the “ASMS ratio (%) n = 1” value under setting [1] amounted to 0.0%. Besides, the “ASMS ratio (%) n = 2” value under setting [2] was found to be 0.0%.

For `CCOc1cccc(-c2ccccc2CN2CCN(c3ccc(C(=O)NS(=O)(=O)C(C)(C)C)nn3)CC2)c1` [Compound B2L071-01, N-tert-Butylsulfonyl-6-[4-[2-(3-ethoxyphenyl)phenyl]methyl]piperazin-1-yllpyridazine-3-carboxamide], under setting [3], the “ASMS ratio (%) n = 1” value turned out to be 1.2%. Also, the “ASMS ratio (%) n = 2” value under setting [4] was determined as 0.0%.

`CCOc1cccc(-c2ccccc2CCC(=O)N2CCN(c3ccc(C(=O)NS(=O)(=O)C(C)(C)C)cc3)CC2)c1` [Compound B2L033-01, N-tert-Butylsulfonyl-4-[4-[3-[2-(3-ethoxyphenyl)phenyl]propanoyl]piperazin-1-yl]benzamide]: the “ASMS ratio (%) n = 1” value under setting [3] is 0.0%. Also, the “ASMS ratio (%) n = 2” value under setting [4] was 0.0%.

Regarding `CCCNC(=O)c1ccc(N2CCN(C(=O)c3cc(-n4cc(-c5cncc(OCC)c5)cn4)cc(C(F)(F)F)c3)CC2)nn1` [Compound B1M022-01], the “ASMS ratio (%) n = 1” value (AS-MS, mixture of 1200 compounds/well, Bcl-2 protein, replicate n = 1) is recorded as −13.6%. In addition, the “ASMS ratio (%) n = 2” value (AS-MS, mixture of 1200 compounds/well, Bcl-2 protein, replicate n = 2) came to 6.7%.

Turning to `CCOc1cccc(-c2ccccc2CN2CCN(c3ccc(C(=O)NS(C)(=O)=O)nn3)CC2)c1` [Compound B2I071-01, 6-[4-[[2-(3-Ethoxyphenyl)phenyl]methyl]piperazin-1-yl]-N-methylsulfonylpyridazine-3-carboxamide], under setting [3], the “ASMS ratio (%) n = 1” value is listed as −1.2%. Also, the “ASMS ratio (%) n = 2” value under setting [4] is recorded as −1.9%.

For the molecule `CCOc1cccc(-c2ccc(C(=O)N3CCN(c4ccc(C(=O)NS(=O)(=O)c5ccc(NCCSc6ccccc6)c(C(F)(F)F)c5)nn4)CC3)cc2F)c1` [Compound B2R005-01, 6-[4-[4-(3-Ethoxyphenyl)-3-fluorobenzoyl]piperazin-1-yl]-N-[4-(2-phenylsulfanylethylamino)-3-(trifluoromethyl)phenyl]sulfonylpyridazine-3-carboxamide], the “ASMS ratio (%) n = 1” value under setting [1] is 44.0%. The “ASMS ratio (%) n = 2” value under setting [2] is on record as 39.5%.

For `CCOc1cccc(-c2ccc(C(=O)N3CCN(c4ccc(C(=O)NS(=O)(=O)c5ccc(NCCSc6ccccc6)c(C(F)(F)F)c5)cc4)CC3)c3ccccc23)c1` [Compound B2R035-01], the “ASMS ratio (%) n = 1” value under setting [1] came to 8.3%. The “ASMS ratio (%) n = 2” value under setting [2] was determined as 0.9%.

With `CCOc1cccc(-c2csc(C(=O)N3CCN(c4ccc(C(=O)NS(=O)(=O)c5ccc(NCCSc6ccccc6)c(C(F)(F)F)c5)cc4)CC3)c2)c1` [Compound B2R023-01, 4-[4-[4-(3-Ethoxyphenyl)thiophene-2-carbonyl]piperazin-1-yl]-N-[4-(2-phenylsulfanylethylamino)-3-(trifluoromethyl)phenyl]sulfonylbenzamide], under setting [1], the “ASMS ratio (%) n = 1” value came out at 0.0%. For the same molecule, the “ASMS ratio (%) n = 2” value under setting [2] was −15.5%.

`CCOc1cccc(-c2csc(CN3CCN(c4ccc(C(=O)NS(=O)(=O)C(C)(C)C)cc4)CC3)c2)c1` [Compound B2L067-01]: under setting [3], the “ASMS ratio (%) n = 1” value is recorded as 0.0%. The “ASMS ratio (%) n = 2” value under setting [4] was 0.0%.

As to `CCOc1cncc(-c2ccc(C(C)N3CCN(c4ccc(C(=O)NS(=O)(=O)C(C)(C)C)cc4)CC3)c(F)c2)c1` (stereo not drawn) [Compound B2L100-01, N-tert-Butylsulfonyl-4-[4-[1-[4-(5-ethoxypyridin-3-yl)-2-fluorophenyl]ethyl]piperazin-1-yl]benzamide], the “ASMS ratio (%) n = 1” value under setting [1] is 0.0%. In addition, the “ASMS ratio (%) n = 2” value under setting [2] came out at 0.0%.
